Molecules are shown by their SMILES.

The text below walks through data of ChEMBL document CHEMBL5346894, “Developments of PROTACs technology in immune-related diseases” (Eur J Med Chem, 2023).

Assay [1] addresses von Hippel-Lindau disease tumor suppressor/Interleukin-1 receptor-associated kinase 4 (Homo sapiens, UniProt Q9NWZ3+P40337). Briefly: Protac activity at VHL/IRAK4 in human HEK293T cells assessed as IRAK4 degradation measured after 24 hrs by immunoblotting analysis. The assay is classed as cell-based.
A further assay addresses Protein cereblon (Homo sapiens, UniProt Q96SW2). Description: Binding affinity to CRBN (unknown origin) assessed as dissociation constant by Tr-FRET assay.
Assay [2] concerns the target Protein cereblon/Indoleamine 2,3-dioxygenase 1 (Homo sapiens) (UniProt P14902+Q96SW2). Briefly: Protac activity at CRBN/IDO1 in human HeLa cell assessed as degradation of IDO1 measured after 24 hrs by Western blot assay relative to control. The assay is classed as cell-based.
The target in assay [3] is Protein cereblon/Histone acetyltransferase KAT2B (Homo sapiens) (UniProt Q92831+Q96SW2). Briefly: Protac activity at CRBN/PCAF in human THP-1 cells assessed as PCAF degradation at 1.5 nM measured after 10 mins by Western blot analysis relative to control. The assay is classed as cell-based.
The target of assay [4] is Protein cereblon/Histone acetyltransferase KAT2A (Homo sapiens) (UniProt Q92830+Q96SW2). Briefly: Protac activity at CRBN/GCN5 in human THP-1 cells assessed as GCN5 degradation at 3 nM measured after 10 mins by Western blot analysis relative to control. The assay is classed as cell-based.
A further assay concerns HeLa. Briefly: Anticancer activity against human HeLa cells assessed as cell growth inhibition measured after 24 hrs by MTT assay. The assay is classed as functional, cell-based.
Assay [5] deals with Protein cereblon/Receptor-interacting serine/threonine-protein kinase 2 (Homo sapiens, UniProt O43353+Q96SW2). Briefly: Protac activity at CRBN/RIPK2 in human THP-1 cells assessed as degradation of RIPK2 measured after 18 hrs by capillary immunoassay. The assay is classed as cell-based.
Assay [6] addresses von Hippel-Lindau disease tumor suppressor/Histone deacetylase 1/Lysine-specific histone demethylase 1A/REST corepressor 1 (Homo sapiens, UniProt O60341+P40337+Q13547+Q9UKL0). Description: Protac activity at VHL/LSD1/HDAC1/CoREST complex interaction in human ES1 cells assessed as HDAC1 degradation by fluorescence based assay. The assay is classed as cell-based.
Assay [7] addresses von Hippel-Lindau disease tumor suppressor/Histone deacetylase 2/Lysine-specific histone demethylase 1A/REST corepressor 1 (Homo sapiens, UniProt O60341+P40337+Q92769+Q9UKL0). Briefly: Protac activity at VHL/LSD1/HDAC2/CoREST complex interaction in human ES1 cells assessed as induction of HDAC2 degradation by fluorescence based assay. The assay is classed as cell-based.
In assay [8] the target is von Hippel-Lindau disease tumor suppressor/Histone deacetylase 3/Lysine-specific histone demethylase 1A/REST corepressor 1 (Homo sapiens, UniProt O15379+O60341+P40337+Q9UKL0). Description: Protac activity at VHL/LSD1/HDAC3/CoREST complex interaction in human ES1 cells assessed as induction of HDAC3 degradation by fluorescence based assay. The assay is classed as cell-based.

The test system of a further assay is Jurkat. Briefly: Anticancer activity against human Jurkat cells assessed as cell growth inhibition. The assay is classed as functional, cell-based.
The next assay concerns HL-60. Description: Anticancer activity against human HL-60 cells assessed as cell growth inhibition. The assay is classed as functional, cell-based.
A further assay deals with MOLT-4. Description: Anticancer activity against human MOLT-4 cells assessed as cell growth inhibition. The assay is classed as functional, cell-based.
Assay [9] addresses T1, von Hippel-Lindau disease tumor suppressor/Receptor-interacting serine/threonine-protein kinase 2 (Homo sapiens, UniProt O43353+P40337). Description: Protac activity at VHL/RIPK2 in human THP-1 cells assessed as RIPK2 degradation measured after 16 hrs by Western blot analysis. The assay is classed as cell-based.
In assay [10] the target is T1, von Hippel-Lindau disease tumor suppressor/Receptor-interacting serine/threonine-protein kinase 2. Description: Protac activity at VHL/RIPK2 in human THP-1 cells assessed as RIPK2 degradation at 10 nM measured after 16 hrs by Western blot analysis relative to control. The assay is classed as cell-based.
The target in assay [11] is Receptor-interacting serine/threonine-protein kinase 2 (Homo sapiens, UniProt O43353). Description: Inhibition of RIPK2 (unknown origin) by fluorescence polarization assay.
For assay [12], the target named is T2, von Hippel-Lindau disease tumor suppressor/Histone deacetylase 3 (Homo sapiens, UniProt O15379+P40337). Description: Protac activity at VHL/HDAC3 in human MDA-MB-468 cells assessed as HDAC3 degradation measured after 14 hrs by Western blot analysis. The assay is classed as cell-based.
Target sequence in this assay (O15379 whole entry): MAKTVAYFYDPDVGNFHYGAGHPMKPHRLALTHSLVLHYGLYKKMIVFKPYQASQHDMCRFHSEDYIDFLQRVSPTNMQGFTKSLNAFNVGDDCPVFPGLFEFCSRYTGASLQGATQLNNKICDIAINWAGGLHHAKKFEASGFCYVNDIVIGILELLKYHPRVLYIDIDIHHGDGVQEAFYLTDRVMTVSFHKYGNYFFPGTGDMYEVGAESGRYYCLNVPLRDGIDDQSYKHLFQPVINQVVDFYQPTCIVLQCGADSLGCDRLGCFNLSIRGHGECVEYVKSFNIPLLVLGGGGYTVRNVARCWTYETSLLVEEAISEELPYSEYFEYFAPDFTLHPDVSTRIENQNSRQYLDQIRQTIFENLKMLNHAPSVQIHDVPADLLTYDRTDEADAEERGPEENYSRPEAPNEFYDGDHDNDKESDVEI
Target sequence in this assay (P40337 whole entry): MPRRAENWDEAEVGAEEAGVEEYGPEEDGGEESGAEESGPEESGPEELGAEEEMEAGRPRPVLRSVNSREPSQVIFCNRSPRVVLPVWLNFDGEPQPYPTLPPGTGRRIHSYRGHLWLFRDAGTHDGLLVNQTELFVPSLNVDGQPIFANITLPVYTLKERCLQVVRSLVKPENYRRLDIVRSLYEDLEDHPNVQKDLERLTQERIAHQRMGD
Assay [13] has as its target T2, von Hippel-Lindau disease tumor suppressor/Histone deacetylase 3. Description: Protac activity at VHL/HDAC3 in human MDA-MB-468 cells assessed as HDAC3 degradation at 125 nM measured after 8 hrs by Western blot analysis relative to control. The assay is classed as cell-based.
Target sequence in this assay (O15379 whole entry, looked up): as the sequence (O15379 whole entry) above
Target sequence in this assay (P40337 whole entry, looked up): as the sequence (P40337 whole entry) above
The target of assay [14] is Protein cereblon/Poly [ADP-ribose] polymerase 1 (Homo sapiens) (UniProt P09874+Q96SW2). Description: Protac activity at CRBN/PARP1 in human SW620 cells assessed as degradation of PARP1 at <100 nM measured after 24 hrs by Western blot analysis relative to control. The assay is classed as cell-based.
In assay [15] the target is E3 ubiquitin-protein ligase XIAP/Receptor-interacting serine/threonine-protein kinase 2 (Homo sapiens, UniProt P98170+O43353). Description: Protac activity at IAP/RIPK2 in human THP-1 cells assessed as degradation of RIPK2 measured after 18 hrs by capillary immunoassay. The assay is classed as cell-based.

von Hippel-Lindau disease tumor suppressor/Histone deacetylase 3/Lysine-specific histone demethylase 1A/REST corepressor 1, sequence (O15379 whole entry, looked up, other chains not shown): as the sequence (O15379 whole entry) above
von Hippel-Lindau disease tumor suppressor/Histone deacetylase 3/Lysine-specific histone demethylase 1A/REST corepressor 1, sequence (P40337 whole entry, looked up, other chains not shown): as the sequence (P40337 whole entry) above
von Hippel-Lindau disease tumor suppressor/Histone deacetylase 3/Lysine-specific histone demethylase 1A/REST corepressor 1, sequence (Q9UKL0 whole entry, looked up, other chains not shown): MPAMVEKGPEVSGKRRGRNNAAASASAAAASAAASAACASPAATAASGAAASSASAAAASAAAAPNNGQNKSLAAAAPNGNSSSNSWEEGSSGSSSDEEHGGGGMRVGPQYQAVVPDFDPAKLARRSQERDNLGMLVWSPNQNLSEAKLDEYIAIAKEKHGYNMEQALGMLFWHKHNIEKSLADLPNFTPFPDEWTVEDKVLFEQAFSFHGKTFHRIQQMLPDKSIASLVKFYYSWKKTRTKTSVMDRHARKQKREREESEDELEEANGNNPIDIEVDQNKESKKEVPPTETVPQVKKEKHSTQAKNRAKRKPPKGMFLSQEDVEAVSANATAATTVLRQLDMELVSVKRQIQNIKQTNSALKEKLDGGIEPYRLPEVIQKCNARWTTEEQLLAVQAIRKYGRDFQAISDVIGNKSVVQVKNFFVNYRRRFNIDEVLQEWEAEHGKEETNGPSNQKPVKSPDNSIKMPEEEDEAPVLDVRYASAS
von Hippel-Lindau disease tumor suppressor/Histone deacetylase 1/Lysine-specific histone demethylase 1A/REST corepressor 1, sequence (P40337 whole entry, looked up, other chains not shown): as the sequence (P40337 whole entry) above
von Hippel-Lindau disease tumor suppressor/Histone deacetylase 1/Lysine-specific histone demethylase 1A/REST corepressor 1, sequence (Q13547 whole entry, looked up, other chains not shown): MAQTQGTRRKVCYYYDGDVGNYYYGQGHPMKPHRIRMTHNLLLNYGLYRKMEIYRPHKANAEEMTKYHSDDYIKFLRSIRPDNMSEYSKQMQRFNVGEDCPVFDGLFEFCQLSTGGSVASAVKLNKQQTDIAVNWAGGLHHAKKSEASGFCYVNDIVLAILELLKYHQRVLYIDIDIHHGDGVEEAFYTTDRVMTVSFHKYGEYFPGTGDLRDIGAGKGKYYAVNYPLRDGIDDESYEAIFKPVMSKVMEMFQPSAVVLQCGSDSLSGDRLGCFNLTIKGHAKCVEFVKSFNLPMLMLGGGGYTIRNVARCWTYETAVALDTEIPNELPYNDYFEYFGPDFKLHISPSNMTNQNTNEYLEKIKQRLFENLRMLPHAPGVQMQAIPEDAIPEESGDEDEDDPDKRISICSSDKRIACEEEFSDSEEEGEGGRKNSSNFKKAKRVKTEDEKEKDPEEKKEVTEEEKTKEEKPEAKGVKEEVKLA
von Hippel-Lindau disease tumor suppressor/Histone deacetylase 1/Lysine-specific histone demethylase 1A/REST corepressor 1, sequence (Q9UKL0 whole entry, looked up, other chains not shown): as the sequence (Q9UKL0 whole entry, looked up, other chains not shown) above
von Hippel-Lindau disease tumor suppressor/Histone deacetylase 2/Lysine-specific histone demethylase 1A/REST corepressor 1, sequence (P40337 whole entry, looked up, other chains not shown): as the sequence (P40337 whole entry) above
von Hippel-Lindau disease tumor suppressor/Histone deacetylase 2/Lysine-specific histone demethylase 1A/REST corepressor 1, sequence (Q92769 whole entry, looked up, other chains not shown): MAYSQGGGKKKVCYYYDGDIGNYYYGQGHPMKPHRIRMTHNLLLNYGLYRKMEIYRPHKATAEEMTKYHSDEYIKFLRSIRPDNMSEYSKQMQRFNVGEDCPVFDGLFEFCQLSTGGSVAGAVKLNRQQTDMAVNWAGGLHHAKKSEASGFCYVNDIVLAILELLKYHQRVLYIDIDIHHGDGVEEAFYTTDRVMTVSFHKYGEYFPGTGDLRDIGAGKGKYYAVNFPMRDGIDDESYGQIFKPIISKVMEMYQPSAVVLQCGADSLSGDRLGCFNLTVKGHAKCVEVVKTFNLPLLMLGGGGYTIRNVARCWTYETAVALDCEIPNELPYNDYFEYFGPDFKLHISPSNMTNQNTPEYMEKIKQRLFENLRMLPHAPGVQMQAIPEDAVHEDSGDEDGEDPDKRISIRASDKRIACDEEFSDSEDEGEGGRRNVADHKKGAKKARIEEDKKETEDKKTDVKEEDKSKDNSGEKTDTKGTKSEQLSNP
von Hippel-Lindau disease tumor suppressor/Histone deacetylase 2/Lysine-specific histone demethylase 1A/REST corepressor 1, sequence (Q9UKL0 whole entry, looked up, other chains not shown): as the sequence (Q9UKL0 whole entry, looked up, other chains not shown) above

Regarding `CC(C)Nc1cc(-n2ccc3cc(C#N)cnc32)ncc1C(=O)N[C@H]1CC[C@H](C(=O)NCCOCCNC(=O)COc2cccc3c2C(=O)N(C2CCC(=O)NC2=O)C3=O)CC1` (stereo not given in full), the 50% degradation concentration (DC50) in assay [1] came to 405 nM. Further, the equilibrium dissociation constant (Kd) on Protein cereblon turned out to be 490 nM.

As to `O=C1CCC(N2C(=O)c3cccc(NCCOCCOCCOCCOCCOCCOCCOCCNCCNc4nonc4/C(=N/O)Nc4ccc(F)c(Br)c4)c3C2=O)C(=O)N1` (stereo not given), the maximal effect (Emax) in assay [2] turned out to be 93%. As to `CN1C[C@H](Nc2cnn(C)c(=O)c2Br)C[C@H](c2ccc(C(=O)N(C)CCCN(C)c3ccc(CCCOc4cccc5c4C(=O)N(C4CCC(=O)NC4=O)C5=O)cc3)cc2)C1` (stereo not given in full), the Activity in assay [3] and in [4] was 50% throughout. Turning to `CC1(NCc2cn(CCOCCOCCOCCOCCNc3cccc4c3C(=O)N(C3CCC(=O)NC3=O)C4=O)nn2)CCN(c2cnc(-c3cccc(Cl)c3Cl)c(N)n2)CC1` (stereo not given), the half-maximal inhibitory concentration (IC50) in the assay with HeLa was 4.3 nM. `CC(C)(C)S(=O)(=O)c1cc2c(Nc3ccc4scnc4c3)ccnc2cc1OCCOCCOCCOCCOCC(=O)Nc1cccc2c1CN(C1CCC(=O)NC1=O)C2=O` (stereo not given): the half-maximal degradation concentration (DC50) in assay [5] stood at 2.5 nM. `Cc1ncsc1-c1ccc(CNC(=O)[C@@H]2C[C@@H](O)CN2C(=O)[C@@H](NC(=O)CCCCCCCCCCC(=O)Nc2ccc(C(=O)Nc3ccccc3N)cc2)C(C)(C)C)cc1`: the half-maximal inhibitory concentration (IC50) in [6], in assay [7] and in assay [8] was 500 nM in each case. In the case of `O=C(/C=C/c1cccnc1)NCCCCC1CCN(C(=O)c2ccc(N3CCN(CCCCCC#Cc4cccc5c4CN(C4CCC(=O)NC4=O)C5=O)CC3)cc2)CC1` (stereo not given), the 50% inhibitory concentration (IC50) in the assay with Jurkat worked out at 4.46 nM; with HL-60, 8.56 nM; in the assay with MOLT-4 it was 2.96 nM.

Take `C=C([C@@H](NC(=O)COCCOCCOCCOCCOc1cc2nccc(Nc3ccc4scnc4c3)c2cc1S(=O)(=O)C(C)(C)C)C(C)(C)C)N1C[C@H](O)C[C@H]1C(=O)NCc1ccc(-c2scnc2C)cc1`: in [9], the DC50 stood at 1.4 nM. The maximal effect (Emax) in [10] is greater than 95%. Moreover, in assay [11], the IC50 turned out to be 10 nM. As to `CCCNNC(=O)c1ccc(-c2ccc(NC(=O)CCCCCCC(=O)N[C@H](C(=O)N3C[C@H](O)C[C@H]3C(=O)N[C@@H](C)c3ccc(-c4scnc4C)cc3)C(C)(C)C)cc2)cc1`, the half-maximal degradation concentration (DC50) in assay [12] was determined as 42 nM. The Activity in assay [13] turned out to be 70%. Take `O=C1CCC(N2Cc3c(NCCCCCCCCCCCNC(=O)c4cc(Cc5n[nH]c(=O)c6ccccc56)ccc4F)cccc3C2=O)C(=O)N1` (stereo not given): in [14], the Activity was found to be 80%.

Take `CN[C@@H](C)C(=O)N[C@H](C(=O)N1Cc2cc(OCCOCCOCCOCCOc3cc4nccc(Nc5ccc6scnc6c5)c4cc3S(=O)(=O)C(C)(C)C)ccc2C[C@H]1C(=O)N[C@@H]1CCCc2ccccc21)C(C)(C)C`: the DC50 in assay [15] worked out at 2 nM.
